Data reported in patent publication EP1380291A1, “PDE IV inhibitors for treating multiple sclerosis” (Schering Aktiengesellschaft, priority 1994, dated 1995).
pEC50: −log10 of the molar value.

Legend:
[1] = system: Experimental Allergic Encephalomyelitis (EAE); test: Prevention of EAE by Rolipram treatment in marmosets immunized with human brain white matter homogenate; format: in vivo, Callithrix jacchus (common marmoset); details: treatment removed on day 60 following immunization; two marmosets
[2] = system: Experimental Allergic Encephalomyelitis (EAE); test: Treatment of active (chronic) EAE with Rolipram in a marmoset; format: in vivo, Callithrix jacchus (common marmoset); details: escalating doses of Rolipram in DMSO
[3] = system: EAE after active immunization (aEAE); test: EAE after active immunization (aEAE) in Lewis rats; format: in vivo; details: drug given from the day of active immunization until day 11
Experimental: (§1) The results of our in vivo findings prompted us to perform treatment experiments in EAE after active immunization (aEAE) and adoptive cell transfer (tEAE) in Lewis rats. […] In clinically manifest EAE, treatment was started within 6 hours of the onset of symptoms. […] In tEAE similar effects were observed. […] Treatment after onset of symptoms also lead to a marked reduction in maximum severity (treated group: MMS 0.7 ± 0.10, n = 5; vehicle treated matched controls 2.45 ± 0.56, n = 5, p 0.01).
In order to distinguish further between a long-term prophylactic or a temporary suppressive effect, animals received the drug from the day of active immunization until day 11.
Histological analysis was performed on selected animals with aEAE. […] In a study on EAE, induced by myelin oligodendrocyte glycoprotein (MOG)-specific T-cells, the lack of neurological signs was ascribed to a decrease of macrophages and parenchymal inflammation, whereas perivascular inflammation and the synthesis of TNF, IFN-gamma, and interleukin-6 was clearly present. In our system, however, the timely onset of paralysis and the morphologically similar appearance of infiltrates in some of the treated animals argues against such a phenomenon. […]

[4] = system: EAE after adoptive cell transfer (tEAE); test: EAE after adoptive cell transfer (tEAE) in Lewis rats; format: in vivo; details: n = 5
Experimental: as §1

[5] = system: encephalitogenic CD4+ MBP-specific rat TCL (L1402); test: TNF/LT production by an encephalitogenic MBP-specific rat T-cell line, cytotoxicity bioassay; format: cell-based
Description: To assess the ability of rolipram alone or in various combinations as described to modify autoimmune processes, we investigated its influence on TNF production in vitro by MBP-specific T-cell lines from MS patients and Lewis rats. MBP is a major candidate antigen in MS, and T-cell-mediated immunity is of crucial importance in its pathogenesis. Similar to EAE, MBP-specific T-cells in humans are often cytotoxic, of Th1 type secreting interferon (IFN)-gamma and TNF/LT, and recognize epitopes that are also encephalitogenic in EAE.
Similar results were found using an encephalitogenic CD4+ MBP-specific rat TCL (L1402). […] Previous investigations had shown that inhibition of cAMP PDE by rolipram is stereospecific.
TNF and LT may both be produced by autoactive T-cells. CD4+ cells have been reported to be the major source of TFN in autoimmune insulitis of NOD mice. The cytokine bioassay for TNF/LT detection employed here is sensitive to TNF and LT, but is 200 times more sensitive to the former.

[6] = system: mouse and rat forebrain tissue; details: in vitro and in vivo binding with 3H-rolipram; previous investigations; cited from earlier work

COc1ccc(C2CNC(=O)C2)cc1OC1CCCC1 (stereo not drawn) [Rolipram, 4-[(3-cyclopentyloxy)-4-methoxyphenyl]-2-pyrrolidinone]
day on which clinical signs of EAE began following withdrawal of Rolipram [1]: 17 days
day of MRI improvement following initiating Rolipram treatment [2]: 14 days
day of marked improvement after initiating treatment [2]: 10 days
delay of aEAE [3]: 3.5 days
mean maximum score (MMN) ([4]; prophylactic treatment, p < 0.01 versus controls): 0.3 ± 0.11
MMS (maximum severity) ([4]; treatment after onset of symptoms): 0.7 ± 0.10

COc1ccc(C2CNC(=O)C2)cc1OC1CCCC1 (single isomer, unassigned; (-)) [(-)-rolipram]
times more effective than the (+)-enantiomer (inhibition of TNF/LT production) [5]: 55 times
times higher affinity than the (+)-enantiomers [6]: 15-30 times

COc1ccc(C2CNC(=O)C2)cc1OC1CCCC1 (single isomer, unassigned; (+)) [(+)-rolipram]
pEC50 ([5]; inhibition of TNF/LT production, given alone): 6.55
